Measurements reported in patent publication US11873309B2, “Heterocyclic compounds as immunomodulators” (Incyte Corporation, priority 2016, dated 2024).
pIC50: −log10 of the molar value.

Target: T1, PD-1/PD-L1 protein/protein interaction (recombinant human PD-L1 protein (19-238), recombinant human PD-1 protein (25-167)) (Homo sapiens, UniProt Q9NZQ7)
T1 construct: Recombinant human PD-L1 protein (19-238) with a His-tag at the C-terminus; purchased AcroBiosystems PD1-H5229 (PD-L1); PD1-H5257 (PD-1)
T1 sequence (Q9NZQ7 19-238): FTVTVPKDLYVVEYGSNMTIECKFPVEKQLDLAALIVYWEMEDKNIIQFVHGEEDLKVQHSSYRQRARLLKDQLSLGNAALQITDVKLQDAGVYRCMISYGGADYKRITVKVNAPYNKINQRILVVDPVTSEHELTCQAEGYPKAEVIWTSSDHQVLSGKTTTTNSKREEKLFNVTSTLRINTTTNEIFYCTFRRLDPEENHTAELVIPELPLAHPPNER
Experiment: PD-1/PD-L1 Homogeneous Time-Resolved Fluorescence (HTRF) Binding Assay
Details: 25° C., PBS buffer pH 7.4, 40 minutes preincubation with inhibitors
Experimental: Example A. PD-1/PD-L1 Homogeneous Time-Resolved Fluorescence (HTRF) Binding Assay
The assays were conducted in a standard black 384-well polystyrene plate with a final volume of 20 μL. Inhibitors were first serially diluted in DMSO and then added to the plate wells before the addition of other reaction components. The final concentration of DMSO in the assay was 1%. The assays were carried out at 25° C. in the PBS buffer (pH 7.4) with 0.05% Tween-20 and 0.1% BSA. Recombinant human PD-L1 protein (19-238) with a His-tag at the C-terminus was purchased from AcroBiosystems (PD1-H5229). Recombinant human PD-1 protein (25-167) with Fc tag at the C-terminus was also purchased from AcroBiosystems (PD1-H5257). PD-L1 and PD-1 proteins were diluted in the assay buffer and 10 μL was added to the plate well. Plates were centrifuged and proteins were preincubated with inhibitors for 40 minutes. The incubation was followed by the addition of 10 μL of HTRF detection buffer supplemented with Europium cryptate-labeled anti-human IgG (PerkinElmer-AD0212) specific for Fc and anti-His antibody conjugated to SureLight®-Allophycocyanin (APC, PerkinElmer-AD0059H). After centrifugation, the plate was incubated at 25° C. for 60 min. before reading on a PHERAstar FS plate reader (665 nm/620 nm ratio). Final concentrations in the assay were […], 10 nM PD-L1, 1 nM europium anti-human IgG and 20 nM anti-His-Allophycocyanin. IC50 determination was performed by fitting the curve of percent control activity versus the log of the inhibitor concentration using the GraphPad Prism 5.0 software.

Row | SMILES | pIC50
1 | O=C(Nc1cccc(-c2ccccc2)c1Cl)c1nc2c(s1)CNCC2 [Example 33, N-(2-chlorobiphenyl-3-yl)-4,5,6,7-tetrahydro[1,3]thiazolo[5,4-c]pyridine-2-carboxamide] | ≥ 7.00
2 | O=C(Nc1cccc(-c2ccc3c(c2)OCCO3)c1Cl)c1nc2c(s1)CNCC2 [Example 34, N-[2-chloro-3-(2,3-dihydro-1,4-benzodioxin-6-yl)phenyl]-4,5,6,7-tetrahydro[1,3]thiazolo[5,4-c]pyridine-2-carboxamide] | ≥ 7.00
3 | Cn1ncc2c(-c3cccc(NC(=O)c4nc5c(s4)CNCC5)c3Cl)cccc21 [Example 35, N-(2-chloro-3-(1-methyl-1H-indazol-4-yl)phenyl)-4,5,6,7-tetrahydrothiazolo[5,4-c]pyridine-2-carboxamide] | ≥ 7.00
4 | Cc1c(NC(=O)c2nc3c(s2)CNCC3)cc(F)cc1-c1ccc2c(c1)OCCO2 [Example 36, N-[3-(2,3-dihydro-1,4-benzodioxin-6-yl)-5-fluoro-2-methylphenyl]-4,5,6,7-tetrahydro[1,3]thiazolo[5,4-c]pyridine-2-carboxamide] | ≥ 7.00
5 | Cc1c(NC(=O)c2nc3c(s2)CNCC3)ccnc1-c1ccc2c(c1)OCCO2 [Example 37, N-[2-(2,3-dihydro-1,4-benzodioxin-6-yl)-3-methylpyridin-4-yl]-4,5,6,7-tetrahydro[1,3]thiazolo[5,4-c]pyridine-2-carboxamide] | 5.00 to 6.30
6 | Cc1c(NC(=O)c2nc3c(s2)CNCC3)cncc1-c1ccc2c(c1)OCCO2 [Example 38, N-[5-(2,3-dihydro-1,4-benzodioxin-6-yl)-4-methylpyridin-3-yl]-4,5,6,7-tetrahydro[1,3]thiazolo[5,4-c]pyridine-2-carboxamide] | 5.00 to 6.30
7 | COc1cccc(-c2cccc(NC(=O)c3nc4c(n3C)CCNC4)c2C#N)c1F [Example 39, N-(2-cyano-2′-fluoro-3′-methoxybiphenyl-3-yl)-1-methyl-4,5,6,7-tetrahydro-1H-imidazo[4,5-c]pyridine-2-carboxamide] | ≥ 7.00
8 | COc1cccc(-c2cccc(NC(=O)c3nc4c(n3C)CCN(CCO)C4)c2C#N)c1F [Example 40, N-(2-cyano-2′-fluoro-3′-methoxybiphenyl-3-yl)-5-(2-hydroxyethyl)-1-methyl-4,5,6,7-tetrahydro-1H-imidazo[4,5-c]pyridine-2-carboxamide] | ≥ 7.00
9 | COc1cccc(-c2cccc(NC(=O)c3nc4c(n3C)CCN(CC(=O)O)C4)c2C#N)c1F [Example 41, (2-{[(2-cyano-2′-fluoro-3′-methoxybiphenyl-3-yl)amino]carbonyl}-1-methyl-1,4,6,7-tetrahydro-5H-imidazo[4,5-c]pyridin-5-yl)acetic acid] | 6.30 to 7.00
10 | Cn1c(C(=O)Nc2cccc(-c3cccc4c3cnn4C)c2C#N)nc2c1CCNC2 [Example 42, N-(2-cyano-3-(1-methyl-1H-indazol-4-yl)phenyl)-1-methyl-4,5,6,7-tetrahydro-1H-imidazo[4,5-c]pyridine-2-carboxamide] | 6.30 to 7.00
